PubChem BioAssay AID1963847 (Molecular Pharmacology Branch, DTP, NCI, 2024)

System: 415267-285-R-J2-PDC complex spheroid viability
Experiment: Anticancer human tumor 415267-285-R-J2-PDC patient-derived breast carcinoma cell line growth inhibition [POLQ]
Conditions: for IC50: curve of first compound; for viability, T/C: stronger effect = lower value
Experimental: Multicellular complex tumor spheroid response to Polymerase (POL) inhibitors (novobiocin, ART-558, RP6685) in combination with a variety of drugs and investigational agents in selected tumor cell lines
The POL inhibitors (novobiocin, ART-558, and RP6685) were evaluated both individually and in combination with standard of care and investigational anticancer small molecules within a complex spheroid model of solid tumors. . Complex spheroids include a stromal component modeled by human endothelial cells (HUVEC) and fibroblasts modeled by human mesenchymal stem cells (MSCs). The concentration ranges selected for each drug and investigational agent were based upon clinically achievable concentrations if the clinical Cmax of the agent was known.
Compounds. The drugs and investigational agents: novobiocin (NSC847541), ART-558 (NSC835418), RP-6685 (NSC848927), peposertib (NSC802822), ceralasertib (NSC780249), elimusertib (NSC800525), camonsertib (NSC841442), AZD-1390 (NSC803789), olaparib (NSC753686), talazoparib (NSC767125), rucaparib (NSC756644), sotorasib (NSC818433), MRTX-1133 (NSC836407), SN-38 (NSC673596), topotecan (NSC609699), epotoside (NSC141540), doxorubicin (NSC123127), gemcitabine (NSC613327), 5-fluorouracil (NSC19893), paclitaxel (NSC125973), vemurafenib (NSC761431), MSA-2 (NSC828583), SN-011 (NSC837082), adavosertib (NSC754352), prexasertib (NSC758257), carboplatin (NSC241240) and oxaliplatin (NSC266046), were obtained from the National Cancer Institute (NCI) Developmental Therapeutics Program Chemical Repository (21). The FDA-approved anticancer drug set is available from the Developmental Therapeutics Program at https://dtp.cancer.gov/organization/dscb/obtaining/. […] The stock solutions were prepared in dimethyl sulfoxide (DMSO, Sigma-Aldrich, St. Louis, MO, cat. D2650), except for the platinum compounds which were prepared in saline (Quality Biological, Gaithersburg, MD, cat. 114-055-101), at 800-fold the tested concentration and stored at -70 degrees C prior to their use. All drugs and investigational agents were tested over a range starting from a high concentration at or near the clinical Cmax and decreasing in half-log increments. If the clinical Cmax for an agent had not been determined, the highest concentration tested was 10 microM, except for SN-38, which was tested at a high concentration of 1 microM.
Cell Culture. All cells were maintained in an incubator at 37 degrees C and 5% CO2 with 95% humidity. The PDC lines were cultured according to standard operating procedures established by the NCI PDMR (https://pdmr.cancer.gov). Table 3 of the manuscript, lists the cell lines along with the number of the three cell types plated to form the mct-spheroids and media for tumor cell growth. After thawing, all PDC lines, except 997537-175-T-J1-PDC and 415267-285-R-J2-PDC, were cultured in Matrigel-coated flasks prepared with a working solution of 1X Ham's F-12 nutrient mix, without supplementation (Thermo Fisher Scientific, cat. 11765054), 100 U/mL penicillin-streptomycin (Thermo Fisher Scientific, cat. 15140122), and 2.5% Matrigel (Corning Inc., Corning, NY, cat. 354248) for the first three passages. The two PDC lines 997537-175-T-J1-PDC and 415267-285-R-J2-PDC were cultured on uncoated flasks. The 857933-349-R-J2-PDC line was cultured in 6C/Colon 1B media containing advanced DMEM/F-12 (Thermo Fisher Scientific, cat. 12634028), 10 mM HEPES (Thermo Fisher Scientific, cat. 15630080), 1X GlutaMAX supplement (Thermo Fisher Scientific, cat. 35050061), 0.1 mg/mL primocin (InvivoGen, San Diego, CA, cat. ant-pm-2), 10% defined fetal bovine serum, heat inactivated (HyClone Laboratories Inc., Logan, UT, cat. SH30070.03HI), 50% L-WRN conditioned media (ATCC, cat. CRL-3276), 1.25 mM N-Acetyl-L-cysteine (Sigma-Aldrich, cat. A9165), 10 mM nicotinamide (Sigma-Aldrich, cat. N0636), 1X B-27 supplement (Thermo Fisher Scientific, cat. 17504044), 1X N-2 supplement (Thermo Fisher Scientific, cat. […]
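Also: spheroids exposed to compounds for one week before readout.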
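For viability, T/C in this document: luminescence used as stand-in measure of viable cells; 100% = DMSO vehicle control viability.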

CCc1cc2c(N3CCc4c(cc(Cn5ccnc5)cc4-c4cn(C)nc4C(F)(F)F)C3=O)cc(C)nc2c(OC)n1 + COC1C(OC(N)=O)C(O)C(Oc2ccc3c(O)c(NC(=O)c4ccc(O)c(CC=C(C)C)c4)c(=O)oc3c2C)OC1(C)C
IC50 (second compound 0.0316 µM): > 10 µM
IC50 (second compound 0.1 µM): > 10 µM
IC50 (second compound 0.316 µM): > 10 µM
IC50 (second compound 1 µM): > 10 µM
IC50 (second compound 3.16 µM): > 10 µM
IC50 (second compound 10 µM): > 10 µM
viability, T/C (second compound 0.0316 µM, first compound 0.0316 µM): 75.5%
viability, T/C (second compound 0.0316 µM, first compound 0.1 µM): 81.8%
viability, T/C (second compound 0.0316 µM, first compound 0.316 µM): 84.8%
viability, T/C (second compound 0.0316 µM, first compound 1 µM): 76.1%
viability, T/C (second compound 0.0316 µM, first compound 3.16 µM): 76%
viability, T/C (second compound 0.0316 µM, first compound 10 µM): 64.4%
viability, T/C (second compound 0.1 µM, first compound 0.0316 µM): 84%
viability, T/C (second compound 0.1 µM, first compound 0.1 µM): 81.9%
viability, T/C (second compound 0.1 µM, first compound 0.316 µM): 80.6%
viability, T/C (second compound 0.1 µM, first compound 1 µM): 75.6%
viability, T/C (second compound 0.1 µM, first compound 3.16 µM): 72.9%
viability, T/C (second compound 0.1 µM, first compound 10 µM): 66.8%
viability, T/C (second compound 0.316 µM, first compound 0.0316 µM): 93.5%
viability, T/C (second compound 0.316 µM, first compound 0.1 µM): 79.9%
viability, T/C (second compound 0.316 µM, first compound 0.316 µM): 74.2%
viability, T/C (second compound 0.316 µM, first compound 1 µM): 69.5%
viability, T/C (second compound 0.316 µM, first compound 3.16 µM): 83.7%
viability, T/C (second compound 0.316 µM, first compound 10 µM): 65.9%
viability, T/C (second compound 1 µM, first compound 0.0316 µM): 94.1%
viability, T/C (second compound 1 µM, first compound 0.1 µM): 79.6%
viability, T/C (second compound 1 µM, first compound 0.316 µM): 68.1%
viability, T/C (second compound 1 µM, first compound 1 µM): 73.9%
viability, T/C (second compound 1 µM, first compound 3.16 µM): 73.6%
viability, T/C (second compound 1 µM, first compound 10 µM): 55.5%
viability, T/C (second compound 3.16 µM, first compound 0.0316 µM): 92.3%
viability, T/C (second compound 3.16 µM, first compound 0.1 µM): 98.6%
viability, T/C (second compound 3.16 µM, first compound 0.316 µM): 73.8%
viability, T/C (second compound 3.16 µM, first compound 1 µM): 85.3%
viability, T/C (second compound 3.16 µM, first compound 3.16 µM): 80.9%
viability, T/C (second compound 3.16 µM, first compound 10 µM): 73.5%
viability, T/C (second compound 10 µM, first compound 0.0316 µM): 90.2%
viability, T/C (second compound 10 µM, first compound 0.1 µM): 85.9%
viability, T/C (second compound 10 µM, first compound 0.316 µM): 88.3%
viability, T/C (second compound 10 µM, first compound 1 µM): 82%
viability, T/C (second compound 10 µM, first compound 3.16 µM): 68.5%
viability, T/C (second compound 10 µM, first compound 10 µM): 59.7%
